Test results from article PMC8131106 (eLife, 2021).

Key:
LeuT [1] = molecular target: T1, LeuT (Aquifex aeolicus, UniProt O67854); experiment: X-ray crystal structure, […] A; assay type: binding; conditions: Na+ bound, outward-facing occluded
T1 construct: gene snf; pET16b, C-terminal 8xHis tag removed with thrombin, expressed in E. coli C41/C43(DE3), purified in DDM then OG; Cys pairs with spin labels for DEER

LeuT [2] = molecular target: T2, LeuT (Aquifex aeolicus, UniProt O67854, R375D); experiment: X-ray crystal structure, […] A; assay type: binding; conditions: Na+ bound, outward-facing occluded
T2 construct: gene snf; pET16b, C-terminal 8xHis tag removed with thrombin, expressed in E. coli C41/C43(DE3), purified in DDM then OG; Cys pairs with spin labels for DEER

LeuT [3] = molecular target: T3, LeuT (Aquifex aeolicus, UniProt O67854, R375A); experiment: X-ray crystal structure, […] A; assay type: binding; conditions: Na+ bound, outward-facing occluded
T3 construct: gene snf; pET16b, C-terminal 8xHis tag removed with thrombin, expressed in E. coli C41/C43(DE3), purified in DDM then OG; Cys pairs with spin labels for DEER

dDAT = molecular target: T4, dDAT (Drosophila melanogaster, UniProt Q7K4Y6); conditions: […] min, room temperature, labelled compound
T4 construct: gene DAT

LeuT [4] = molecular target: T5, LeuT (Aquifex aeolicus, UniProt O67854, H7C/R86C/A309C, form not given); experiment: DEER EPR distance distributions; assay type: binding; conditions: […] NaCl, fourfold molar excess of Leu; each spin-label pair in its own construct (pair also printed as […])
T5 construct: gene snf; pET16b, C-terminal 8xHis tag removed with thrombin, expressed in E. coli C41/C43(DE3), purified in DDM then OG; Cys pairs with spin labels for DEER

LeuT [5] = molecular target: T6, LeuT (Aquifex aeolicus, UniProt O67854, R375D, form not given); experiment: DEER EPR distance distributions; assay type: binding; conditions: […] NaCl, fourfold molar excess of Leu; each spin-label pair in its own construct (pair also printed as […])
T6 construct: gene snf; pET16b, C-terminal 8xHis tag removed with thrombin, expressed in E. coli C41/C43(DE3), purified in DDM then OG; Cys pairs with spin labels for DEER

[6] = substrate: NCCc1ccc(O)c(O)c1; experiment: cells, lysate or membranes; conditions: pH […]-7.[…] min, […] DA, labelled compound

T4 sequence (Q7K4Y6 whole entry): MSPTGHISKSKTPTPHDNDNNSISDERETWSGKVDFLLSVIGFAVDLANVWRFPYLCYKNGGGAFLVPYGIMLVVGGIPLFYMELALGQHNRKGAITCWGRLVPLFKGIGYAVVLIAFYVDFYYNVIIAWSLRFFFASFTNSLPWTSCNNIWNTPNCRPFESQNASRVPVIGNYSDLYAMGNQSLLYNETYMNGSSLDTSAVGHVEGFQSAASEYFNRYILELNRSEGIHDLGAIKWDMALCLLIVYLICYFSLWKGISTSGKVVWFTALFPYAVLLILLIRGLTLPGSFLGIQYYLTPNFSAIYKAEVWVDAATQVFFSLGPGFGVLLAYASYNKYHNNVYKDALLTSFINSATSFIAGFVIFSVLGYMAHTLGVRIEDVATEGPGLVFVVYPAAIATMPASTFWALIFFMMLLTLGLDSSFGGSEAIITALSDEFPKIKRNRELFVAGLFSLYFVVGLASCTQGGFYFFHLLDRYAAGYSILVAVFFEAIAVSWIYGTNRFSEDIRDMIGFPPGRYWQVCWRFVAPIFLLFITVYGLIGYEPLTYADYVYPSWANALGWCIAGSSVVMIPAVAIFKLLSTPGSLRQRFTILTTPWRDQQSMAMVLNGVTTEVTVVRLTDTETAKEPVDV

## C[C@H](N)C(=O)O [L-Ala]
LeuT [1]
  X-ray crystal structure, 2.1 A: L-Ala, Na1, and Na2 (purple spheres) could be modeled into their respective binding sites
LeuT [2]
  X-ray crystal structure, 2.6 A: LeuT WT, LeuT R375A, and LeuT R375D solved in the L-Ala and Na^+ bound OO conformation
LeuT [3]
  X-ray crystal structure, 2.1 A: LeuT WT, LeuT R375A, and LeuT R375D solved in the L-Ala and Na^+ bound OO conformation

## NCCc1ccc(O)c(O)c1 [dopamine]
dDAT
  [3H]DA uptake, intact fly brains: uptake of [^3H]DA in hDAT WT Drosophila brains was not significantly different from that measured in dDAT

## CC(C)C[C@H](N)C(=O)O [Leu]
LeuT [4]
  DEER EPR distance distributions: Leu binding to Na^+-bound LeuT restores the conformational preference to the OO form
LeuT [5]
  DEER EPR distance distributions: Na^+/Leu resets the IC gate to the IO conformation

B1: hDAT (Homo sapiens) (protein)
chain: MSKSKCSVGLMSSVVAPAKEPNAVGPKEVELILVKEQNGVQLTSSTLTNPRQSPVEAQDRETWGKKIDFLLSVIGFAVDLANVWRFPYLCYKNGGGAFLVPYLLFMVIAGMPLFYMELALGQFNREGAAGVWKICPILKGVGFTVILISLYVGFFYNVIIAWALHYLFSSFTTELPWIHCNNSWNSPNCSDAHPGDSSGDSSGLNDTFGTTPAAEYFERGVLHLHQSHGIDDLGPPRWQLTACLVLVIVLLYFSLWKGVKTSGKVVWITATMPYVVLTALLLRGVTLPGAIDGIRAYLSVDFYRLCEASVWIDAATQVCFSLGVGFGVLIAFSSYNKFTNNCYRDAIVTTSINSLTSFSSGFVVFSFLGYMAQKHSVPIGDVAKDGPGLIFIIYPEAIATLPLSSAWAVVFFIMLLTLGIDSAMGGMESVITGLIDEFQLLHRHRELFTLFIVLATFLLSLFCVTNGGIYVFTLLDHFAAGTSILFGVLIEAIGVAWFYGVGQFSDDIQQMTGQRPSLYWRLCWKLVSPCFLLFVVVVSIVTFRPPHYGAYIFPDWANALGWVIATSSMAMVPIYAAYKFCSLPGSFREKLAYAIAPEKDRELVDRGEVRQFTLRHWLKV
[6]
  Km: 5.7 ± 1.4 µM

B2: hDAT (Homo sapiens; R445C) (protein)
chain: MSKSKCSVGLMSSVVAPAKEPNAVGPKEVELILVKEQNGVQLTSSTLTNPRQSPVEAQDRETWGKKIDFLLSVIGFAVDLANVWRFPYLCYKNGGGAFLVPYLLFMVIAGMPLFYMELALGQFNREGAAGVWKICPILKGVGFTVILISLYVGFFYNVIIAWALHYLFSSFTTELPWIHCNNSWNSPNCSDAHPGDSSGDSSGLNDTFGTTPAAEYFERGVLHLHQSHGIDDLGPPRWQLTACLVLVIVLLYFSLWKGVKTSGKVVWITATMPYVVLTALLLRGVTLPGAIDGIRAYLSVDFYRLCEASVWIDAATQVCFSLGVGFGVLIAFSSYNKFTNNCYRDAIVTTSINSLTSFSSGFVVFSFLGYMAQKHSVPIGDVAKDGPGLIFIIYPEAIATLPLSSAWAVVFFIMLLTLGIDSAMGGMESVITGLIDEFQLLHRHCELFTLFIVLATFLLSLFCVTNGGIYVFTLLDHFAAGTSILFGVLIEAIGVAWFYGVGQFSDDIQQMTGQRPSLYWRLCWKLVSPCFLLFVVVVSIVTFRPPHYGAYIFPDWANALGWVIATSSMAMVPIYAAYKFCSLPGSFREKLAYAIAPEKDRELVDRGEVRQFTLRHWLKV
[6]
  Km: 0.10 ± 0.07 µM
